Measurements from PubChem BioAssay (NCI).
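Method: 48-hour compound exposure of cells in 96-well plates, five concentrations, linear interpolation of endpoints. At the TGI there is no net growth.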

Legend:
Experiment in all cases: inhibition of tumour cell growth, NCI panel, 48 h
IGROV1 ovarian = tested on: IGROV1 ovarian
U251 CNS = tested on: U251 CNS
SK-OV-3 ovarian = tested on: SK-OV-3 ovarian
K-562 leukemia = tested on: K-562 leukemia
UO-31 renal = tested on: UO-31 renal
UACC-257 melanoma = tested on: UACC-257 melanoma
ACHN renal = tested on: ACHN renal
SNB-19 CNS = tested on: SNB-19 CNS
MOLT-4 leukemia = tested on: MOLT-4 leukemia
DLD-1 colon = tested on: DLD-1 colon
LXFL 529 NSCLC = tested on: LXFL 529 NSCLC
XF 498 CNS = tested on: XF 498 CNS
M14 melanoma = tested on: M14 melanoma
HOP-18 NSCLC = tested on: HOP-18 NSCLC
CAKI-1 renal = tested on: CAKI-1 renal
SK-MEL-2 melanoma = tested on: SK-MEL-2 melanoma
SF-539 CNS = tested on: SF-539 CNS
A498 renal = tested on: A498 renal
SNB-75 CNS = tested on: SNB-75 CNS
786-0 renal = tested on: 786-0 renal
HCT-116 colon = tested on: HCT-116 colon
NCI-H226 lung = tested on: NCI-H226 lung
MALME-3M melanoma = tested on: MALME-3M melanoma
OVCAR-8 ovarian = tested on: OVCAR-8 ovarian
NCI-H460 lung = tested on: NCI-H460 lung
OVCAR-5 ovarian = tested on: OVCAR-5 ovarian
LOX IMVI melanoma = tested on: LOX IMVI melanoma
SR leukemia = tested on: SR leukemia
NCI-H23 lung = tested on: NCI-H23 lung
OVCAR-4 ovarian = tested on: OVCAR-4 ovarian
HOP-62 NSCLC = tested on: HOP-62 NSCLC
OVCAR-3 ovarian = tested on: OVCAR-3 ovarian
SW-620 colon = tested on: SW-620 colon
DMS 273 small cell lung = tested on: DMS 273 small cell lung
CCRF-CEM leukemia = tested on: CCRF-CEM leukemia
HL-60(TB) leukemia = tested on: HL-60(TB) leukemia
TK-10 renal = tested on: TK-10 renal
SF-295 CNS = tested on: SF-295 CNS
HCT-15 colon = tested on: HCT-15 colon
NCI-H522 lung = tested on: NCI-H522 lung
HOP-92 NSCLC = tested on: HOP-92 NSCLC
KM20L2 colon = tested on: KM20L2 colon
SN12C renal = tested on: SN12C renal
M19-MEL melanoma = tested on: M19-MEL melanoma
UACC-62 melanoma = tested on: UACC-62 melanoma
HCC-2998 colon = tested on: HCC-2998 colon
EKVX NSCLC = tested on: EKVX NSCLC
SNB-78 CNS = tested on: SNB-78 CNS
SK-MEL-28 melanoma = tested on: SK-MEL-28 melanoma
SK-MEL-5 melanoma = tested on: SK-MEL-5 melanoma
RPMI-8226 leukemia = tested on: RPMI-8226 leukemia
HT29 colon = tested on: HT29 colon
KM12 colon = tested on: KM12 colon
DMS 114 small cell lung = tested on: DMS 114 small cell lung
COLO 205 colon = tested on: COLO 205 colon
A549 NSCLC = tested on: A549 NSCLC
SF-268 CNS = tested on: SF-268 CNS
RXF 393 renal = tested on: RXF 393 renal

What does the source list for `O=C(COc1ccc(Cl)cc1)N1N=C(c2ccc(Cl)cc2)CC1(O)c1ccccc1` (stereo not drawn)?
TGI (IGROV1 ovarian): 61.6 µM; TGI (U251 CNS): 38.3 µM; TGI (SK-OV-3 ovarian): > 63.6 µM; TGI (K-562 leukemia): > 42.7 µM; TGI (UO-31 renal): > 100 µM; TGI (UACC-257 melanoma): 44.3 µM; TGI (ACHN renal): > 100 µM; TGI (SNB-19 CNS): > 100 µM; TGI (MOLT-4 leukemia): 30.6 µM; TGI (DLD-1 colon): 49.5 µM; TGI (LXFL 529 NSCLC): > 100 µM; TGI (XF 498 CNS): > 100 µM; TGI (M14 melanoma): 34.5 µM; TGI (HOP-18 NSCLC): > 100 µM; TGI (CAKI-1 renal): > 100 µM; TGI (SK-MEL-2 melanoma): 80.7 µM; TGI (SF-539 CNS): > 59.4 µM; TGI (A498 renal): 26.5 µM; TGI (SNB-75 CNS): > 72.7 µM; TGI (786-0 renal): 28.3 µM; TGI (HCT-116 colon): 26.3 µM; TGI (NCI-H226 lung): 48.1 µM; TGI (MALME-3M melanoma): 47.4 µM; TGI (OVCAR-8 ovarian): 30 µM; TGI (NCI-H460 lung): 35.7 µM; TGI (OVCAR-5 ovarian): 45.3 µM; TGI (LOX IMVI melanoma): 26.6 µM; TGI (SR leukemia): 17.7 µM; TGI (NCI-H23 lung): 33.9 µM; TGI (OVCAR-4 ovarian): 21 µM; TGI (HOP-62 NSCLC): 57 µM; TGI (OVCAR-3 ovarian): 39.2 µM; TGI (SW-620 colon): > 69.3 µM; TGI (DMS 273 small cell lung): 33.1 µM; TGI (CCRF-CEM leukemia): > 100 µM; TGI (HL-60(TB) leukemia): 28 µM; TGI (TK-10 renal): > 78 µM; TGI (SF-295 CNS): 82 µM; TGI (HCT-15 colon): > 58.1 µM; TGI (NCI-H522 lung): 50.2 µM; TGI (HOP-92 NSCLC): 44.1 µM; TGI (KM20L2 colon): > 50.9 µM; TGI (SN12C renal): 11.4 µM; TGI (M19-MEL melanoma): > 63.4 µM; TGI (UACC-62 melanoma): 41.6 µM; TGI (HCC-2998 colon): > 100 µM; TGI (EKVX NSCLC): 91.4 µM; TGI (SNB-78 CNS): > 56.7 µM; TGI (SK-MEL-28 melanoma): 35.3 µM; TGI (SK-MEL-5 melanoma): 29.3 µM; TGI (RPMI-8226 leukemia): > 37.6 µM; TGI (HT29 colon): 26.3 µM; TGI (KM12 colon): 31.4 µM; TGI (DMS 114 small cell lung): > 100 µM; TGI (COLO 205 colon): 54.6 µM; TGI (A549 NSCLC): 34.7 µM; TGI (SF-268 CNS): > 100 µM

Which results are given for `O=C1NC2=C(CCCC/C2=N\O)C12CCCCC2`?
TGI (IGROV1 ovarian): > 100 µM; TGI (RXF 393 renal): > 100 µM; TGI (U251 CNS): > 100 µM; TGI (SK-OV-3 ovarian): > 100 µM; TGI (K-562 leukemia): > 100 µM; TGI (UO-31 renal): > 100 µM; TGI (UACC-257 melanoma): > 100 µM; TGI (ACHN renal): > 100 µM; TGI (SNB-19 CNS): > 100 µM; TGI (MOLT-4 leukemia): > 100 µM; TGI (DLD-1 colon): > 100 µM; TGI (LXFL 529 NSCLC): > 100 µM; TGI (XF 498 CNS): > 100 µM; TGI (M14 melanoma): > 100 µM; TGI (SF-539 CNS): > 100 µM; TGI (A498 renal): > 100 µM; TGI (SNB-75 CNS): > 100 µM; TGI (HCT-116 colon): > 100 µM; TGI (NCI-H226 lung): > 100 µM; TGI (MALME-3M melanoma): > 100 µM; TGI (NCI-H460 lung): > 100 µM; TGI (OVCAR-5 ovarian): > 100 µM; TGI (LOX IMVI melanoma): > 100 µM; TGI (SR leukemia): > 100 µM; TGI (NCI-H23 lung): > 100 µM; TGI (OVCAR-4 ovarian): > 100 µM; TGI (HOP-62 NSCLC): > 100 µM; TGI (OVCAR-3 ovarian): > 100 µM; TGI (SW-620 colon): > 100 µM; TGI (HL-60(TB) leukemia): > 100 µM; TGI (TK-10 renal): > 100 µM; TGI (SF-295 CNS): > 100 µM; TGI (HCT-15 colon): > 100 µM; TGI (KM20L2 colon): > 100 µM; TGI (SN12C renal): > 100 µM; TGI (M19-MEL melanoma): > 100 µM; TGI (UACC-62 melanoma): > 100 µM; TGI (HCC-2998 colon): > 100 µM; TGI (EKVX NSCLC): > 100 µM; TGI (SNB-78 CNS): > 100 µM; TGI (SK-MEL-28 melanoma): > 100 µM; TGI (HT29 colon): > 100 µM; TGI (KM12 colon): > 100 µM; TGI (DMS 114 small cell lung): > 100 µM; TGI (A549 NSCLC): > 100 µM; TGI (SF-268 CNS): > 100 µM
